According to US20250195502A1, “APPLICATION OF TETRACYCLIC COMPOUND IN TREATMENT OF TUMORS” (SHANGHAI SHIJIANG BIOTECHNOLOGY CO., LTD, priority 2022, published 2025):
Where two headings read alike, the source gives them in different places.

Experiments:
Format in all cases: cell-based
[1] = tested on: Con-NCI-H82 cell (NCI-H82 transfected with empty virus vector); test: Cell viability assay (Promega CellTiter-Glo), inhibitory effect on Con-NCI-H82 cell; conditions: Homo sapiens
Procedure: (§1) The role of expression level of NNMT gene and DNMT1 in the sensitivity of NCI-H82 cell to the compounds prepared in the Examples of the present invention was determined
(§2) The expression of NNMT protein in NCI-H82 cell was overexpressed by inserting the NNMT gene into NCI-H82 cell using a viral vector, and the NNMT protein-overexpressing NCI-H82 cell (ov-NNMT NCI-H82 cell) was obtained. The expression of DNMT1 in NCI-H82 cell was knocked down transfecting (the by shRNA nucleotide sequence of shRNA was […] TTTTTG (SEQ ID No: 2)) using a viral vector, and the NCI-H82 cell with low expression of DNMT1 protein (sh-DNMT1 NCI-H82 cell) was obtained. The control NCI-H82 cell (Con-NCI-H82 cell) was obtained by transfecting NCI-H82 cell with empty virus vector without carrying NNMT gene and shRNA. The expressing content of NNMT protein and DNMT1 protein in the Con-NCI-H82 cell, the expressing content of NNMT protein in the ov-NNMT NCI-H82 cell, and the expressing content of DNMT1 protein in the sh-DNMT1 NCI-H82 cell were detected using Western Blot assay (as shown in FIG. 15 and FIG. 16), it could be seen from FIG. 15 and FIG. 16 that the NNMT protein was overexpressed in the ov-NNMT NCI-H82 cell and the expression of DNMT1 protein was knocked down (i.e, low expression) in the sh-DNMT1 NCI-H82 cell compared with the expression level of NNMT protein and DNMT protein in the Con-NCI-H82 cell.

[2] = tested on: sh-DNMT1 NCI-H82 cell (DNMT1 knocked down NCI-H82); test: Cell viability assay (Promega CellTiter-Glo), inhibitory effect on sh-DNMT1 NCI-H82 cell; conditions: Homo sapiens, NCI-H82 with DNMT1 knocked down by shRNA
Procedure: as §1, §2

[3] = tested on: ov-NNMT NCI-H82 cell (NNMT protein-overexpressing NCI-H82); test: Cell viability assay (Promega CellTiter-Glo), inhibitory effect on ov-NNMT NCI-H82 cell; conditions: Homo sapiens
Procedure: as §1, §2

[4] = NCI-H82 transfected with empty virus vector (control), CellTiter-Glo, read-out: inhibitory effect on Con-NCI-H82 (IC50)
[5] = NCI-H82, read-out: inhibitory effect on Con-NCI-H82 (IC50)

SMILES	IC50 [1, 4]	IC50 [2]	IC50 [3]	IC50 [1, 5]
CCCCCCCCCCOc1c(OC)ccc2cc3[n+](cc12)CCc1cc2c(cc1-3)OCO2 [compound AB31716]	70 nM	350 nM	380 nM	–
CCCCCCCCCCCCOc1c(OC)ccc2cc3[n+](cc12)CCc1cc2c(cc1-3)OCO2 [compound AB31717]	110 nM	360 nM	250 nM	–
CCc1c2[n+](cc3c(OC)c(OC)ccc13)CCc1cc3c(cc1-2)OCO3 [compound AB31755]	2360 nM	7680 nM	4820 nM	–
CCCc1c2[n+](cc3c(OC)c(OC)ccc13)CCc1cc3c(cc1-2)OCO3 [compound AB31756]	1010 nM	4360 nM	2380 nM	–
CCCCCCCCc1c2[n+](cc3c(OC)c(OC)ccc13)CCc1cc3c(cc1-2)OCO3 [compound AB31761]	270 nM	980 nM	740 nM	–
CCCCCCCCCCc1c2[n+](cc3c(OC)c(OC)ccc13)CCc1cc3c(cc1-2)OCO3 [compound AB31762]	130 nM	490 nM	320 nM	–
CCCCCCCCCCCCc1c2[n+](cc3c(OC)c(OC)ccc13)CCc1cc3c(cc1-2)OCO3 [compound AB31763]	80 nM	420 nM	310 nM	–
CCCCCCCCCCCCc1c2[n+](cc3c(OCCCCCCCCCC)c(OC)ccc13)CCc1cc3c(cc1-2)OCO3 [compound AB31795]	240 nM	880 nM	680 nM	–
CCCCCCCCCCCCc1c2[n+](cc3c(OCCCCCCCC)c(OC)ccc13)CCc1cc3c(cc1-2)OCO3 [compound AB31796]	270 nM	760 nM	640 nM	–
CCCCCCCCCCCCc1c2[n+](cc3c(OCCCCCC)c(OC)ccc13)CCc1cc3c(cc1-2)OCO3 [compound AB31797]	120 nM	480 nM	540 nM	–
CCCCCCCCCCCCCCc1c2[n+](cc3c(OC)c(OC)ccc13)CCc1cc3c(cc1-2)OCO3 [compound AB31800]	220 nM	580 nM	650 nM	–
COc1ccc2cc3[n+](cc2c1OCCCCl)CCc1cc2c(cc1-3)OCO2 [compound AB35483]	–	5320 nM	2880 nM	1260 nM
COc1ccc2cc3[n+](cc2c1OCCCl)CCc1cc2c(cc1-3)OCO2 [compound AB36404]	–	4860 nM	2540 nM	1060 nM
COc1c(OCCCCl)ccc2cc3[n+](cc12)CCc1cc2c(cc1-3)OCO2 [compound AB36425]	–	3880 nM	1920 nM	850 nM

Second part, led by results:

IC50 [1, 4]	IC50 [2]	IC50 [3]	SMILES	IC50 [1, 5]
3120 nM	12400 nM	7340 nM	COc1ccc2cc3[n+](cc2c1OC)CCc1cc2c(cc1-3)OCCO2 [compound AB31811]	–
610 nM	2560 nM	1380 nM	CCCOc1c(OC)ccc2cc3[n+](cc12)CCc1cc2c(cc1-3)OCO2 [compound AB35511]	–
340 nM	2560 nM	960 nM	COc1ccc2cc3[n+](cc2c1OCc1ccc(-c2ccccc2)cc1)CCc1cc2c(cc1-3)OCO2 [compound AB35532]	–
680 nM	3150 nM	1540 nM	COc1ccc2cc3[n+](cc2c1OCCBr)CCc1cc2c(cc1-3)OCO2 [compound AB35595]	–
1170 nM	4690 nM	2580 nM	CCOc1c(OC)ccc2cc3[n+](cc12)CCc1cc2c(cc1-3)OCO2 [compound AB36412]	–
1840 nM	8320 nM	3850 nM	COc1ccc2cc3[n+](cc2c1OCCF)CCc1cc2c(cc1-3)OCO2 [compound AB36484]	–
560 nM	2820 nM	1340 nM	[2H]C([2H])([2H])Oc1c(OC)ccc2cc3[n+](c(C4CCCC4)c12)CCc1cc2c(cc1-3)OCO2.[Br-] [compound AB36508]	–
